Source: EP1970046A1, “Use of purine and purine derivatives for treating hair” (priority 2007, dated 2008)
Where two headings read alike, the source gives them in different places.

Tests used:
Type in all cases: cell-based
hha1 = assay: cells; details: Keratinocyte, read-out: Haarkeratinexpression hha1 Mittelwert
Protocol: (§1) Zur Bestimmung des Einflusses von Theophyllin auf die Expression von Haarkeratinen wurde die differentielle Genexpression mittels quantitatitiver RT-PCR bestimmt. Nach Anzucht der Keratinozyten der äusseren Wurzelscheide (ORS-Keratinozyten) wurden diese für 3, 6 oder 24 h mit Theophyllin in Konzentration von 1.10 und 100 µM inkubiert.
(§2) Zur Durchführung der PCR wird zunächst mit Hilfe des RNeasy Mini Kits der Fa. Qiagen die RNA aus ORS-Keratinozyten isoliert und mittels reverser Transkription in cDNA umgeschrieben. Bei der anschließenden PCR Reaktion, die mit Hilfe genspezifischer Primer für die jeweiligen haarrelevanten Gene durchgeführt wird und die der Amplifikation der gesuchten Genabschnitte dient, wird die Bildung der PCR-Produkte online über ein Fluoreszenzsignal detektiert. Das Fluoreszenzsignal ist dabei proportional zur Menge des gebildeten PCR-Produktes. Je stärker die Expression eines bestimmten Gens Ist, desto größer Ist die Menge an gebildetem PCR-Produkt und um so höher ist das Fluoreszenzsignal. Zur Quantifizierung der Genexpression wird die unbehandelte Kontrolle gleich 1 gesetzt und die Expression der zu bestimmenden Gene darauf bezogen (x-fache Expression). Dabei werden Werte, die größer/gleich der 2fachen Expression oder kleiner/gleich der 0.5fachen Expression der unbehandelten Kontrolle sind als signifikant differentiell exprimiert eingestuft. Werte, die größer/gleich der 1,6fachen Expression oder kieiner/gleich der 0.66fachen Expression der unbehandelten Kontrolle sind als tendenziell differentiell exprimiert eingestuft. Die Ergebnisse sind in Tabelle 3 zusammengefasst. Tabelle 3: Haarkeratinexpression nach Behandlung von ORS-Keratinozyten in Zellkulturen im Vergleich zur unbehandelten Kontrolle.

hha6 = assay: cells; details: Keratinocyte, read-out: Haarkeratinexpression hha6 Mittelwert
Protocol: as §1, §2

hha3 [1] = assay: cells; details: Keratinocyte, read-out: Haarkeratinexpression hha3 Mittelwert
Protocol: as §1, §2

hha4 [2] = assay: cells; details: Keratinocyte, read-out: Haarkeratinexpression hha4 Mittelwert
Protocol: as §1, §2

hhb6 [3] = assay: cells; details: Keratinocyte, read-out: Haarkeratinexpression hhb6 Mittelwert
Protocol: as §1, §2

KGF [4] = assay: KGF release from dermal papilla cells (ELISA); details: dermale Papillenzellen
Excerpt: Der Keratinozyten Wachstumsfaktor Factor (KGF) Ist ein äußerst wichtiger Regulator des Haars. Bei einer potentiell wachstumsfördernden und das Haar stärkenden Aktivsubstanz kann von einer Steigerung der ins Medium ausgeschütteten Faktoren ausgegangen werden. Die Ausschüttung von KGF kann mit Hilfe von kommerziell erhältlichen ELISA-Kits quantifiziert werden. Dazu wurden die dermalen Papillenzellen über 24 Stunden mit Theophyllin inkubiert und die Konzentration des Wachstumsfaktors im Medium in beschriebener Weise quantifiziert. Tabelle 1: Relative Ausschüttung von KGF in [%] nach Behandlung der dermalen Papillenzellen im Vergleich zur unbehandelten Kontrollen.

hha3 [5] = assay: cells; details: read-out: Haarkeratinexpression hha3 Mittelwert
Excerpt: as §2
(§3) Die Aktivierung der Keratinsynthese nach Applikation von Theophyllin wurde zusätzlich mit Hilfe organotypischer Haarfollikelzelikulturen untersucht, in denen verschiedene Zellen des Haarfollikels miteinander interagieren können. Die Untersuchungen erfolgten mit dem in Beispiel 3 erläuterten Verfahren der quantitativen Reverse Transkription Polymerase Kettenreaktion. Die Ergebnisse sind in Tabelle 4 zusammengefasst. Tabelle 4: Haarkeratinexpression nach Behandlung mit Theophyllin in organotpischen Haarfollikelzellkulturen im Vergleich zur unbehandelten Kontrolle.

hha4 [6] = assay: cells; details: read-out: Haarkeratinexpression hha4 Mittelwert
Excerpt: as §2, §3

hhb6 [7] = assay: cells; details: read-out: Haarkeratinexpression hhb6 Mittelwert
Excerpt: as §2, §3

KGF [8] = assay: KGF release from organotypic hair follicle cell cultures (ELISA); details: organotypische Haarfollikelzellkulturen
Excerpt: (§4) Hepatocyte Growth Factor (HGF) und Keratinocyte Growth Factor (KGF) sind wichtige Wachstumsfaktoren, die von der dermalen Papille ausgeschüttet werden, um die Proliferation der Haarschaftkeratinozyten, die für die Synthese der Haarkeratine verantwortlich sind, zu steuern. Sie sind außerdem charakteristische Marker für die Anagenphase, in der auch die Keratinsynthese maximal ist. Darüber hinaus ist zu beachten, dass bei der Haaralterung das Proliferationsvermögen der Haarfollikelzellen abnimmt. Die Ausschüttung von HGF sowie KGF kann mit Hilfe von kommerziell erhältlichen ELISA-Kits quantifiziert werden.
(§5) Dazu werden organotypische Haarfollikelzellkulturn über 72h mit Theophyllin inkubiert und die Konzentration der Wachstumsfaktoren im Medium in beschriebener Weise bestimmt. Tabelle 2: Relative Ausschüttung von HGF und KGF in [%] nach Behandlung des organotypischen Haarfollikelzellkulturen im Vergleich zu unbehandelten Kontrollen.

HGF = HGF release from organotypic hair follicle cell cultures (ELISA); details: organotypische Haarfollikelzellkulturen
Excerpt: as §4, §5

## Cn1c(=O)c2[nH]cnc2n(C)c1=O [Theophyllin]
hha1; 3 h
  fold induction at 1 µM: 0.73
  fold induction at 10 µM: 1.18
  fold induction at 100 µM: 1.38
hha1; 6 h
  fold induction at 1 µM: 0.9
  fold induction at 10 µM: 0.92
  fold induction at 100 µM: 1.22
hha1; 24 h
  fold induction at 1 µM: 1.3
  fold induction at 10 µM: 1.4
  fold induction at 100 µM: 2.49
hha6; 3 h
  fold induction at 1 µM: 0.45
  fold induction at 10 µM: 0.59
  fold induction at 100 µM: 0.28
hha6; 6 h
  fold induction at 1 µM: 1.12
  fold induction at 10 µM: 0.42
  fold induction at 100 µM: 0.57
hha6; 24 h
  fold induction at 1 µM: 3.19
  fold induction at 10 µM: 2.14
  fold induction at 100 µM: 1.61
hha3 [1]; 3 h
  fold induction at 1 µM: 0.86
  fold induction at 10 µM: 1.47
  fold induction at 100 µM: 2.47
hha3 [1]; 6 h
  fold induction at 1 µM: 0.8
  fold induction at 10 µM: 0.87
  fold induction at 100 µM: 1.25
hha3 [1]; 24 h
  fold induction at 1 µM: 1.2
  fold induction at 10 µM: 1.41
  fold induction at 100 µM: 2.75
hha4 [2]; 3 h
  fold induction at 1 µM: 0.83
  fold induction at 10 µM: 1.4
  fold induction at 100 µM: 2.41
hha4 [2]; 6 h
  fold induction at 1 µM: 0.81
  fold induction at 10 µM: 0.88
  fold induction at 100 µM: 1.31
hha4 [2]; 24 h
  fold induction at 1 µM: 1.27
  fold induction at 10 µM: 1.48
  fold induction at 100 µM: 2.65
hhb6 [3]; 3 h
  fold induction at 1 µM: 1.09
  fold induction at 10 µM: 1.12
  fold induction at 100 µM: 1.78
hhb6 [3]; 6 h
  fold induction at 1 µM: 0.8
  fold induction at 10 µM: 0.76
  fold induction at 100 µM: 1.23
hhb6 [3]; 24 h
  fold induction at 1 µM: 1.34
  fold induction at 10 µM: 1.28
  fold induction at 100 µM: 1.98
KGF [4]; 24 h, 24 Stunden, 1µM, untreated control = 100, read-out: Relative Ausschüttung von KGF Mittelwert
  activity at 1 µM: 121%
KGF [4]; 24 h, 24 Stunden, 10µM, untreated control = 100, read-out: Relative Ausschüttung von KGF Mittelwert
  activity at 10 µM: 135%
KGF [4]; 24 h, 24 Stunden, 100µM, untreated control = 100, read-out: Relative Ausschüttung von KGF Mittelwert
  activity at 100 µM: 161%
KGF [4]; result in words
  Freisetzung von KGF: signifikant erhöhten Freisetzung
hha3 [5]; 6 h
  fold induction at 10 µM: 0.76
  fold induction at 100 µM: 0.76
hha3 [5]; 24 h
  fold induction at 10 µM: 2.27
  fold induction at 100 µM: 3
hha4 [6]; 6 h
  fold induction at 10 µM: 0.91
  fold induction at 100 µM: 1.56
hha4 [6]; 24 h
  fold induction at 10 µM: 2.08
  fold induction at 100 µM: 1.88
hhb6 [7]; 6 h
  fold induction at 10 µM: 1.28
  fold induction at 100 µM: 2.06
hhb6 [7]; 24 h
  fold induction at 10 µM: 1.81
  fold induction at 100 µM: 1.68
KGF [8]; 500 µM, result in words
  Freisetzung von KGF: tendenziell erhöhten Freisetzung
KGF [8]; 72h, untreated = 100 (35), spread in brackets, read-out: Relative Ausschüttung von KGF Mittelwert
  activity at 500 µM: 144%
HGF; HGF, 72h, untreated = 100 (14), spread in brackets, read-out: Relative Ausschüttung von HGF Mittelwert
  activity at 500 µM: 144%
HGF; 500 µM, result in words
  Freisetzung des Hepatozyten Wachstumsfaktor (HGF): erhöhte Freisetzung
